Laboratory results from patent US20240366612A1, “COMPOUNDS AND METHODS FOR MODULATING NUCLEIC ACID SPLICING” (REMIX THERAPEUTICS INC., priority 2021, published 2024).
Where a name gives a salt, the structure may show the parent alone.

Tests used:
[1] = test system: HiBiT-tagged MYB protein in K562 cells; experiment: HiBiT protein abundance assay, MYB; type: cell-based, human; conditions: HiBiT-modified K562 cells, 24 hours, luminescence
Method: Compounds described herein were used to screen for effects on quantitative protein abundance using a HiBit assay system (Promega). Quantitative protein abundance was determined by measuring the protein levels of HiBit-tagged protein targets expressed in cell culture via luminescence using the Nano-Glo HiBiT Lytic Detection System, which uses a split complementation assay format to reconstitute NanoBiT enzyme to generate a luminescent signal. A protein abundance assay was developed such that endogenous protein targets could be modified with the HiBiT peptide tag and their abundance could be assessed after compound treatment. Briefly, K562 cell lines containing a HiBiT-modification were treated with various compounds described herein (e.g., compounds of Formulas (I), (II), or (III)). After treatment for 24 hours, the protein abundance of a specific target was determined by measuring luminescence.
• Promega Nano-Glo HiBiT Lytic Detection System (cat #N3030) • Corning 384-well TC-treated microplates (cat #3570) • Synthego Engineered Cells Knock-In Clones
Cells were maintained in IMDM with 10% FBS. Before the assay, cells were diluted with […] growth media (IMDM+1% FBS media) and were seeded in a 384-well plate at a density of 10000 cells/well (for each cell line listed in Table 5). Each compound was prepared as a 10-point 3-fold serial dilution in DMSO with the top dose at a final concentration of 10 μM in the well. Unmodified K562 cells were added at the previously specified density with DMSO to serve as an assay baseline and positive control (PC) and DMSO only with the respective modified cell lines was added to the negative control (NC) columns. Final DMSO concentration was kept at or below 0.25%. Treated cell plates were placed in an incubator at 37° C. with 5% CO2 for 24 hours. After 24 hours, 25 μL of Complete HiBit Lytic reagent was added to each well at room temperature (e.g. one plate requiring 10 mL Lytic Buffer, 100 μL LgBiT Protein, 200 μL Lytic Substrate), shaken for 5 minutes at 600 RPM, then left to sit for 10 minutes for signal to stabilize before reading on a Spark Cyto plate reader (Tecan) with a 500 ms measurement time.
To determine compound effects on protein abundance of each target in Table 5, the percent response for each respective cell line was calculated at each compound concentration as follows:
For the normalized response at each concentration, a four-parameter logistical regression was fit to the data and the response was interpolated at the 50% value to determine a concentration for protein abundance at 50% (IC50) the untreated control.

Target C CJ mRNA = experiment: Gene panel canonical junction qPCR assay, Target C; type: cell-based; conditions: Homo sapiens, larger gene panel, read-out: Target C IC50 (decrease in CJ mRNA levels)
Method: Compounds described herein were used to modulate RNA transcript abundance in cells. The expression of a target mRNA was measured by detecting the formation of an exon-exon junction in the canonical transcript (CJ). A compound mediated exon-inclusion event was detected by observing an increase in formation of a new junction with an alternative exon (AJ). Real-time qPCR assays were used to detect these splicing switches and interrogate the potency of various compounds towards different target genes. A high-throughput real time quantitative PCR (RT-qPCR) assay was developed to measure these two isoforms of the mRNA (CJ and AJ) for exemplary genes, such as HTT, SMN2, and MYB, together with a control housekeeping gene, GAPDH or GUSB or PPIA, used for normalization. Briefly, the A673 or K562 cell line was treated with various compounds described herein (e.g., compounds of Formula (I)). After treatment, the levels of the HTT, MYB, or SMN2 mRNA targets were determined from each sample of cell lysate by cDNA synthesis followed by qPCR.
The A673 cell line was cultured in DMEM with 10% FBS. Cells were diluted with full growth media and plated in a 96-well plate (15,000 cells in 100 ul media per well). The plate was incubated at 37° C. with 5% CO2 for 24 hours to allow cells to adhere. An 11-point 3-fold serial dilution of the compounds was made in DMSO then diluted in media in an intermediate plate. Compounds were transferred from the intermediate plate to the cell plate with the top dose at a final concentration of 10 uM in the well. Final DMSO concentration was kept at or below 0.25%. The cell plate was returned to the incubator at 37° C. with 5% CO2 for an additional 24 hours.
The K562 cell line was cultured in IMDM with 10% FBS. For K562, cells were diluted with full growth media and plated in either a 96-well plate (50,000 cells in 50 uL media per well) or a 384-well plate (8,000-40,000 cells in 45 uL media per well). An 11-point 3-fold serial dilution of the compounds were made in DMSO then diluted in media in an intermediate plate. Compound was transferred from the intermediate plate to the cell plate with the top dose at a final concentration of 10 uM in the well. Final DMSO concentration was kept at or below 0.25%. Final volume was 100 uL for 96-well plate and 50 uL for 384-well plate. The cell plate was then placed in an incubator at 37° C. with 5% CO2 for 24 hours.
The data analysis was performed by first determining the ΔCt vs the housekeeper gene. This ΔCt was then normalized against the DMSO control (ΔΔCt) and converted to RQ (relative quantification) using the 2^(−ΔΔCt) equation. The RQ were then converted to a percentage response by arbitrarily setting an assay window of 3.5 and 4.0 ΔCt for HTT-CJ and MYB-CJ respectively and an assay window of 9 and 3 ΔCt for HTT-AJ and MYB-AJ in 96 well format (50,000 K562 cells/well and 15,000 A673 cells per well) and an assay window of 3 and 4 ΔCt for HTT-CJ and MYB-CJ respectively and an assay window of 5 and 3 ΔCt for HTT-AJ and MYB-AJ respectively in 384 well format (8,000 K562 cells/well example). […] The percentage response was then fitted to the 4 parametric logistic equation to evaluate the concentration dependence of compound treatment. The increase in AJ mRNA is reported as AC50 (compound concentration having […] in AJ increase) while the decrease in CJ mRNA levels is reported as IC50 (compound concentration having 50% response in CJ decrease).
Additional studies were carried out for a larger panel of genes using the protocol provided above. The junction between flanking upstream and downstream exons was used to design canonical junction qPCR assays. At least one of the forward primer, reverse primer or the CY5-labeled 5′ nuclease probe (with 3′ quencher such as ZEN/Iowa Black FQ) was designed to overlap with the exon junction to capture the CJ mRNA transcript. […]

Compound	IC50 [1] [µM]	IC50 (Target C CJ mRNA) [µM]
Cc1cn2cc(-c3cc4ncn([C@H]5CCNC[C@@H]5F)c(=O)c4s3)cc(F)c2n1 (relative stereo) [Compound 272, trans-6-{8-fluoro-2-methylimidazo[1,2-a]pyridin-6-yl}-3-[3-fluoropiperidin-4-yl]thieno[3,2-d]pyrimidin-4-one]	1 to 10	> 10
Cc1cn2cc(-c3cc4ncn([C@H]5CCNC[C@H]5F)c(=O)c4s3)cc(F)c2n1 (relative stereo) [Compound 273, cis-6-{8-fluoro-2-methylimidazo[1,2-a]pyridin-6-yl}-3-[3-fluoropiperidin-4-yl]thieno[3,2-d]pyrimidin-4-one]	1 to 10	1 to 10
Cc1cn2cc(-c3cc4ncn([C@H]5CCN[C@H](C)C5)c(=O)c4s3)cc(F)c2n1 (relative stereo) [Compound 277, 6-{8-fluoro-2-methylimidazo[1,2-a]pyridin-6-yl}-3-[(trans)-2-methylpiperidin-4-yl]thieno[3,2-d]pyrimidin-4-one]	0.1 to 1	1 to 10
Cc1cn2cc(-c3cc4ncn([C@H]5CCN[C@@H](C)C5)c(=O)c4s3)cc(F)c2n1 (relative stereo) [Compound 278, 6-{8-fluoro-2-methylimidazo[1,2-a]pyridin-6-yl}-3-[(cis)-2-methylpiperidin-4-yl]thieno[3,2-d]pyrimidin-4-one hydrochloride]	0.1 to 1	0.1 to 1
Cc1cn2nc(-c3cc(=O)n4cc(N(C)C5CC(C)(C)NC(C)(C)C5)sc4n3)cc(C)c2n1 [Compound 205, 7-(2,8-dimethylimidazo[1,2-b]pyridazin-6-yl)-2-(methyl(2,2,6,6-tetramethylpiperidin-4-yl)amino)-5H-thiazolo[3,2-a]pyrimidin-5-one]	1 to 10	1 to 10
Cc1cc(-c2nn3c(=O)cc(N4CCNCC4)nc3s2)cc2cn(C)nc12 [Compound 206, 2-(2,7-dimethyl-2H-indazol-5-yl)-7-(piperazin-1-yl)-5H-[1,3,4]thiadiazolo[3,2-a]pyrimidin-5-one]	1 to 10	1 to 10
Cc1cn2nc(-c3cc(=O)n4cc(N5CCNC6(CC6)C5)sc4n3)cc(C)c2n1 [Compound 211, 7-(2,8-dimethylimidazo[1,2-b]pyridazin-6-yl)-2-(4,7-diazaspiro[2.5]octan-7-yl)-5H-thiazolo[3,2-a]pyrimidin-5-one]	1 to 10	1 to 10
Cc1cn2nc(-c3cn4c(=O)cc(N5CCNC6(CC6)C5)nc4s3)cc(C)c2n1 [Compound 212, 2-(2,8-dimethylimidazo[1,2-b]pyridazin-6-yl)-7-(4,7-diazaspiro[2.5]octan-7-yl)-5H-thiazolo[3,2-a]pyrimidin-5-one]	1 to 10	1 to 10

Now from value to compound:

IC50 [1] [µM]	IC50 (Target C CJ mRNA) [µM]	Compound
> 10	> 10	Cc1cc(-c2cc(=O)n3cc(N4CCN(C)CC4)sc3n2)cc2cn(C)nc12 [Compound 109, 7-(2,7-dimethyl-2H-indazol-5-yl)-2-(4-methylpiperazin-1-yl)-5H-thiazolo[3,2-a]pyrimidin-5-one]
> 10	> 10	Cc1cc(-c2cc(=O)n3nc(N4CCN(C)CC4)sc3n2)cc2cn(C)nc12 [Compound 157, 7-(2,7-dimethyl-2H-indazol-5-yl)-2-(4-methylpiperazin-1-yl)-5H-[1,3,4]thiadiazolo[3,2-a]pyrimidin-5-one]
1 to 10	1 to 10	Cc1cn2cc(-c3cc(=O)n4nc(N5CCN(C)CC5)sc4n3)cc(F)c2n1 [Compound 159, 7-(8-fluoro-2-methylimidazo[1,2-a]pyridin-6-yl)-2-(4-methylpiperazin-1-yl)-5H-[1,3,4]thiadiazolo[3,2-a]pyrimidin-5-one]
> 10	> 10	Cc1cn2cc(-c3cc(=O)n4cc(N5CCNC6(CC6)C5)sc4n3)cc(F)c2n1 [Compound 207, 7-(8-fluoro-2-methylimidazo[1,2-a]pyridin-6-yl)-2-(4,7-diazaspiro[2.5]octan-7-yl)-5H-thiazolo[3,2-a]pyrimidin-5-one]
1 to 10	1 to 10	Cc1cn2cc(-c3cn4c(=O)cc(N5CCNC6(CC6)C5)nc4s3)cc(F)c2n1 [Compound 208, 2-(8-fluoro-2-methylimidazo[1,2-a]pyridin-6-yl)-7-(4,7-diazaspiro[2.5]octan-7-yl)-5H-thiazolo[3,2-a]pyrimidin-5-one]
1 to 10	1 to 10	Cc1cn2cc(-c3cc(=O)n4nc(N5CCNC6(CC6)C5)sc4n3)cc(F)c2n1 [Compound 209, 7-(8-fluoro-2-methylimidazo[1,2-a]pyridin-6-yl)-2-(4,7-diazaspiro[2.5]octan-7-yl)-5H-[1,3,4]thiadiazolo[3,2-a]pyrimidin-5-one]
1 to 10	1 to 10	Cc1cc(-c2nn3c(=O)cc(N4CCN(C)CC4)nc3s2)cc2cn(C)nc12 [Compound 210, 2-(2,7-dimethyl-2H-indazol-5-yl)-7-(4-methylpiperazin-1-yl)-5H-[1,3,4]thiadiazolo[3,2-a]pyrimidin-5-one]
> 10	> 10	Cc1cn2cc(-c3cn4c(=O)cc(N5CCNCC5)nc4s3)cc(F)c2n1 [Compound 213, 2-(8-fluoro-2-methylimidazo[1,2-a]pyridin-6-yl)-7-(piperazin-1-yl)-5H-thiazolo[3,2-a]pyrimidin-5-one]
> 10	> 10	Cc1cn2cc(-c3nn4c(=O)cc(N5CCNCC5)nc4s3)cc(F)c2n1 [Compound 214, 2-(8-fluoro-2-methylimidazo[1,2-a]pyridin-6-yl)-7-(piperazin-1-yl)-5H-[1,3,4]thiadiazolo[3,2-a]pyrimidin-5-one]
